Test results published in patent publication EP4349409A1, “COMPOUNDS FOR THE MANAGEMENT OF CELL STEMNESS AND INVASION IN CANCER AND RELATED DISEASES” (Instituto Biomar S.A., priority 2022, dated 2024).

What was measured:
T98G = assay: MTT-based cytotoxicity assay, T98G; assay type: cell-based; details: Homo sapiens, 72 h
Description: (§1) A dose-response analysis of BMT9 (concentrations ranging from 4.5 µM-18 µM), BCNU (from 150 µM-500 µM) and TMZ (350 µM-700 µM) was performed in two conventional glioblastoma cell lines (T98G, U373) and the GNS cell line G144 by MTT-based cytotoxicity assays (Figure 5A-D). Cells were seeded on p96-well plates and treated with the different compounds for 72 h. Then, the MTT reagent (3-(4,5-Dimethyl-2-thiazolyl)-2,5-diphenyl-2H-tetrazolium bromide diluted in PBS to a concentration of 1mg/ml), was added to each well to a final concentration of 0.33mg/ml, and incubated for 3 h at 37°C. After that, the media was removed, and formazan crystals were solubilized with DMSO. Absorbance was measured at 560 nm using a "Synergy HT" plate reader (Biotek). In the graphs, the Y axis represents the percentage of cell viability relative to non-treated cells. The IC50, when reached are marked by a rectangle. DMSO treatment had no effect on cell viability.

U373 = assay: MTT-based cytotoxicity assay, U373; assay type: cell-based; details: Homo sapiens, U373 MG, 72 h
Description: as §1

[1] = Pharmacokinetics in plasma after intraperitoneal administration; assay type: in vivo; details: female C57BL/6 mice, i.p. 100 mg/kg
Description: The Maximum Tolerated Dose (MTD) and Pharmacokinetics (PK) of BMT9 were determined after intraperitoneal administration to female C57BL/6 (~25 g) mice.
C57BL/6 female mice (9-13 weeks in age) were administered intraperitoneally with a single dose of BMT9 at 35, 50, 75, 100 or 200 mg/Kg. Total of 3 animals were used for each independent serial sampling experiment. The compound was dissolved in an appropriate vehicle (Cremophor:EtOH:H20 1:1:8). Body weight, distress and survival were monitored 1, 2, 4 hours and 8 hours post-administration and every day during the whole observation period. The MTD was set on the dose below the first dose that caused severe loss of body weight (>20%) or death of one or more animals of a dose group seven days after treatment. The MTD of BMT9 was therefore set on about […]. The concentrations of BMT9 in plasma was determined at different times per duplicate using a previously validated analytical method. The compound was injected via i.p at 100 mg/kg. Total of 3 animals were used for each independent serial sampling experiment. Blood samples were collected at 5, 15, 30 min, 1, 4, 10, 24, and 48 hours from each animal via cardiac puncture; […] withdrawn at each time point. 25 microliters of blood sample were then used for quantitative bioanalysis by HPLC-MS/MS. The fundamental pharmacokinetic parameters were obtained from the non-compartmental analysis using PK Solutions 2.0.2.

G144 = assay: MTT-based cytotoxicity assay, G144; assay type: cell-based, human; details: for IC50: G144, MTT, 72 h
Description: as §1
(§2) Previous studies have reported that the molecular signature of the GNSC G144 cell line corresponds to a 'proneural' subtype of GB with NSC features (Pollard et al., 2009; Danovi et al., 2013). Thus, to test BMT9 specificity we compared cellular viability when treating CD133-positive cells (either GNSCs or normal human fetal neural stem cells-NSC) versus CD133-negative human embryonic fibroblast (HEFs) (Figure 8A). MTT-based cytotoxicity assay (Figure 7B-D) were performed as previously described.
While the first line therapy of gliomas has proven its effectiveness and improved clinical outcomes, acquired chemoresistance to alkylating agents has been identified as a major cause of treatment failure (Sarkaria et al., 2008). In a murine model of GB, long-term treatment with subtoxic TMZ doses enriched the side population of cancer stem cells, increasing the tumor aggressiveness (Bleau et al., 2009). Thus, we generated TMZ-resistant G144-clones that were selected upon treatment with TMZ either at 500 µM or 700 µM for several months (R500 and R700, respectively). The obtained clones maintained CD133 stem marker expression (Figure 9A). We then analyzed BMT9 dose-dependent effect on cell viability, by MTT assay, comparing the resistant clones to parental cells.

G144 cells = assay: 3D spheroid cell-invasion assay in Matrigel, G144; assay type: cell-based, human; details: 24 h
Description: A hallmark of glioblastoma cell infiltration through a 3D environment is the extension of long, thin polarized membrane extensions that explore and penetrate the surrounding environment. The 3D spheroid cell-invasion model consists in generating cell spheroids by suspension culture that are subsequently embedded in a 3D matrix. G144 cells were seeded on non-adherent conditions (without laminin coating) at a cell concentration of 40,000 cells/ml. After 8 days, spheres were embedded in a 2:1 mixture of Matrigel and growth media. Matrigel mix was let to polymerize at 37°C for 30 minutes, and then it was covered with growth media. Migration was monitored by phase-contrast microscopy for 24 h and the area of each sphere at the initial and final time points was measured using the ImageJ software, in order to calculate the ratio between both areas (Figure 10D, Y axis).

GNSC = assay: Immunostaining for Nestin, Tuj1 and GFAP (differentiation) in GNSC; assay type: cell-based; details: 4.5 µM
Description: Moreover, we asked whether BMT9, at IC50 concentration, induced differentiation of these GNSC. For these experiments, cells were seeded under proliferation conditions and treated with BMT9 at 4.5 µM for 72 h. Cells were fixed with 3.7% paraformaldehyde for 15 min and immunostained with Nestin, Tuj1 and GFAP specific antibodies. Samples were analyzed using a Zeiss LSM800 confocal microscopy. To quantify the percentage of neural (Tuj-1) (Figure 7D) and astrocytic (GFAP+) (Figure 7E) differentiated cells, positive cells for each marker were manually counted and compared with the total number of cells.

[2] = test system: normal human fetal neural stem cells-NSC; assay: Long term MTT viability, normal neural stem cells; assay type: cell-based; details: CD133-positive NSC, 1.125-4.5 µM
Description: as §2

G144-GNSC cells = assay: Transcriptome comparison (DESeq2) of G144-GNSC cells after treatment; assay type: cell-based, human; details: DESeq2, p-adj<0.01, treated vs non-treated G144-GNSC
Text: Finally, to elucidate the molecular basis of BMT9 effect on the stemness potential of the GNSCs, we compared the transcriptome of non-treated G144-GNSC cells with those after BMT9 treatment. The DESeq2 analysis identified 6163 differentially expressed genes (DEGs) with a p-adj<0.01. […] Among the found DEGs we found GSC markers like PROM1(CD133), LGR5, or SOX1 and SOX4, as well as key regulators involved in maintenance of the cancer cell stemness state like SOX9 (Wang et al., 2018)(Aldaz et al., 2020), CDC20 (Gujar et al., 2016) or AURKA, known to govern self-renewal capacity in glioma-initiating cells via stabilization/activation of β-catenin/Wnt signaling (Xia et al., 2013) and proposed, together with CCNA2, and TPX2, as ideal drug targets in GBM (Du et al., 2020). Table 3. Correlation of GNSCs transcriptomic profiles after BMT9 treatment with published gene signatures of stemness.

C=C1C2CCC(C)(C3COc4c(C)c(OC)c5c(c4C3O)C(O)OC5=O)C1CCC2(C)C (centres unmarked) [BMT9]
IC50 (T98G): > 9 µM | IC50 (U373): 18 µM | highest concentration in the plasma [1]: 7611 ng/mL | time at which plasma concentration reached the control levels post-administration [1]: 24 h | time of highest concentration in the plasma after injection [1]: 4 h | concentration as low as which still reduced viability (G144; G144, 72 h after treatment): 2.25 µM | IC50 (G144): 4.5 µM | cellular viability in long term culture (G144; GNSC (G144, CD133-positive), 1.125-4.5 µM): stronger effect against GNSC | IC50 (G144; Homo sapiens): < 4.5 µM | invasion of cells within the matrix surrounding the spheres (G144 cells): significantly impaired the invasion of cells | expression of the stem cell marker Nestin (GNSC; 72 h (data not shown)): reduced the expression of the stem cell marker Nestin | neural differentiation (Tuj1 and GFAP positive cells) (GNSC; 72 h, proliferating culture conditions): induced neural differentiation | cellular viability in long term culture [2]: affected | differentially expressed genes (DEGs) (G144-GNSC cells): 6163
